In patent publication US9650395B2, “Antibacterial compounds and methods for use” (PTC Therapeutics, Inc., priority 2011, dated 2017):
Converted amounts (≈) assume the structure as drawn. Where two headings read alike, the source gives them in different places.

Assays:
[1] = tested on: quinolone resistant E. coli LZ3111; assay: Antibacterial activity, MIC, quinolone resistant E. coli LZ3111; type: cell-based, Escherichia coli; settings: Escherichia coli, read-out: MIC, LZ3111
From the text: The antibacterial activity from a microbroth dilution method may be presented as the minimum inhibitory concentration (MIC in […]). The MIC value is the lowest concentration of a drug which prevents macroscopically visible bacterial growth under test conditions.
Mutations in these regions are known to confer a high level resistance to the quinolone class of antibiotics.

[2] = tested on: Gram-positive Staphylococcus aureus (S. aureus) 29213; assay: Antibacterial activity, microbroth dilution MIC, S. aureus 29213; type: cell-based; settings: Staphylococcus aureus; S. aureus 29213, microbroth dilution; read-out: MIC, 29213
[3] = tested on: super sensitive Gram-negative Escherichia coli (E. coli) BAS849; assay: Antibacterial activity, microbroth dilution MIC, E. coli BAS849; type: cell-based; settings: Escherichia coli, read-out: MIC, BAS849
[4] = tested on: E. coli ELZ4000 (MDR clinical isolate); assay: Antibacterial activity, MIC, MDR E. coli ELZ4000; type: cell-based, Escherichia coli; settings: Escherichia coli; E. coli ELZ4000, MDR clinical isolate; read-out: MIC ELZ4000
[5] = tested on: control Gram-negative E. coli 25922 strain; assay: Antibacterial activity, microbroth dilution MIC, E. coli 25922; type: cell-based, Escherichia coli; settings: Escherichia coli; E. coli 25922, microbroth dilution; read-out: MIC, 25922
[6] = tested on: E. coli ELZ4251 (MDR clinical isolate); assay: Antibacterial activity, MIC, MDR E. coli ELZ4251; type: cell-based, Escherichia coli; settings: Escherichia coli, E. coli ELZ4251, MDR clinical isolate; read-out: MIC ELZ4251
[7] = E. coli BAS849, microbroth dilution

Compound | MIC [1] | MIC [2] | MIC [3, 7] | MIC [4] | MIC [5] | MIC [6] | MIC [3]
CCc1cc(C(=O)O)c(=O)[nH]c1-c1ccc(OC)cc1 [Cpd 24, 5-ethyl-6-(4-methoxyphenyl)-2-oxo-1,2-dihydropyridine-3-carboxylic acid] | 12.5 to 150 µg/mL (≈ 45.7 to 549 µM) | 12.5 to 150 µg/mL (≈ 45.7 to 549 µM) | < 1 µg/mL | 12.5 to 150 µg/mL (≈ 45.7 to 549 µM) | 3.5 to 12.5 µg/mL (≈ 12.8 to 45.7 µM) | 12.5 to 150 µg/mL (≈ 45.7 to 549 µM) | –
CCc1cc(C(=O)O)c(=O)[nH]c1-c1ccc(N2CC[C@H](N=[N+]=[N-])C2)cc1 [Cpd 130, 6-{4-[(3S)-3-azidopyrrolidin-1-yl]phenyl}-5-ethyl-2-oxo-1,2-dihydropyridine-3-carboxylic acid] | 12.5 to 150 µg/mL (≈ 35.4 to 424 µM) | 3.5 to 12.5 µg/mL (≈ 9.9 to 35.4 µM) | < 1 µg/mL | 12.5 to 150 µg/mL (≈ 35.4 to 424 µM) | 1 to 3.5 µg/mL (≈ 2.83 to 9.9 µM) | 12.5 to 150 µg/mL (≈ 35.4 to 424 µM) | –
CCc1cc(C(=O)O)c(=O)[nH]c1-c1ccc(N(C)CCN(C)C)cc1 [Cpd 161, 6-(4-{[2-(dimethylamino)ethyl](methyl)amino}phenyl)-5-ethyl-2-oxo-1,2-dihydropyridine-3-carboxylic acid] | 12.5 to 150 µg/mL (≈ 36.4 to 437 µM) | 12.5 to 150 µg/mL (≈ 36.4 to 437 µM) | < 1 µg/mL | 12.5 to 150 µg/mL (≈ 36.4 to 437 µM) | 1 to 3.5 µg/mL (≈ 2.91 to 10.2 µM) | 12.5 to 150 µg/mL (≈ 36.4 to 437 µM) | –
CC(C)c1cc(C(=O)O)c(=O)[nH]c1-c1ccc(N2CCCC2)cc1 [Cpd 163, 5-isopropyl-2-oxo-6-[4-(pyrrolidin-1-yl)phenyl]-1,2-dihydropyridine-3-carboxylic acid] | 12.5 to 150 µg/mL (≈ 38.3 to 460 µM) | 12.5 to 150 µg/mL (≈ 38.3 to 460 µM) | < 1 µg/mL | 12.5 to 150 µg/mL (≈ 38.3 to 460 µM) | 3.5 to 12.5 µg/mL (≈ 10.7 to 38.3 µM) | 12.5 to 150 µg/mL (≈ 38.3 to 460 µM) | –
O=C(O)c1cc(C2CC2)c(-c2ccc(N3CCCC3)cc2)[nH]c1=O [Cpd 164, 5-cyclopropyl-2-oxo-6-[4-(pyrrolidin-1-yl)phenyl]-1,2-dihydropyridine-3-carboxylic acid] | 12.5 to 150 µg/mL (≈ 38.5 to 462 µM) | 3.5 to 12.5 µg/mL (≈ 10.8 to 38.5 µM) | < 1 µg/mL | 12.5 to 150 µg/mL (≈ 38.5 to 462 µM) | 1 to 3.5 µg/mL (≈ 3.08 to 10.8 µM) | 12.5 to 150 µg/mL (≈ 38.5 to 462 µM) | –
CCc1c(-c2ccc(N3CCC(OC)CC3)cc2)[nH]c(=O)c(C(=O)O)c1O [Cpd 282, 5-ethyl-4-hydroxy-6-[4-(4-methoxypiperidin-1-yl)phenyl]-2-oxo-1,2-dihydropyridine-3-carboxylic acid] | 12.5 to 150 µg/mL (≈ 33.6 to 403 µM) | 12.5 to 150 µg/mL (≈ 33.6 to 403 µM) | < 1 µg/mL | – | 12.5 to 150 µg/mL (≈ 33.6 to 403 µM) | – | –
CCc1c(-c2ccc(N3CCC(N(Cc4ccccc4)Cc4ccccc4)CC3)cc2)[nH]c(=O)c(C(=O)O)c1O [Cpd 283, 6-{4-[4-(dibenzylamino)piperidin-1-yl]phenyl}-5-ethyl-4-hydroxy-2-oxo-1,2-dihydropyridine-3-carboxylic acid] | 12.5 to 150 µg/mL (≈ 23.2 to 279 µM) | 12.5 to 150 µg/mL (≈ 23.2 to 279 µM) | 3.5 to 12.5 µg/mL (≈ 6.51 to 23.2 µM) | – | 12.5 to 150 µg/mL (≈ 23.2 to 279 µM) | – | –
CCc1c(-c2ccc(N3CCC(N)CC3)cc2)[nH]c(=O)c(C(=O)O)c1O [Cpd 284, 6-[4-(4-aminopiperidin-1-yl)phenyl]-5-ethyl-4-hydroxy-2-oxo-1,2-dihydropyridine-3-carboxylic acid] | 12.5 to 150 µg/mL (≈ 35 to 420 µM) | 12.5 to 150 µg/mL (≈ 35 to 420 µM) | 3.5 to 12.5 µg/mL (≈ 9.79 to 35 µM) | – | 12.5 to 150 µg/mL (≈ 35 to 420 µM) | – | –
CCc1c(-c2ccc(N3CCC(n4ccnn4)C3)cc2)[nH]c(=O)c(C(=O)O)c1O (stereo not drawn) [Cpd 287, 5-ethyl-4-hydroxy-2-oxo-6-{4-[3-(1H-1,2,3-triazol-1-yl)pyrrolidin-1-yl]phenyl}-1,2-dihydropyridine-3-carboxylic acid] | 12.5 to 150 µg/mL (≈ 31.6 to 379 µM) | 3.5 to 12.5 µg/mL (≈ 8.85 to 31.6 µM) | < 1 µg/mL | – | 1 to 3.5 µg/mL (≈ 2.53 to 8.85 µM) | – | –
CCc1c(-c2ccc(N3CCC(C)(O)C3)cc2)[nH]c(=O)c(C(=O)O)c1O (stereo not drawn) [Cpd 289, 5-ethyl-4-hydroxy-6-[4-(3-hydroxy-3-methylpyrrolidin-1-yl)phenyl]-2-oxo-1,2-dihydropyridine-3-carboxylic acid] | 12.5 to 150 µg/mL (≈ 34.9 to 419 µM) | 1 to 3.5 µg/mL (≈ 2.79 to 9.77 µM) | < 1 µg/mL | – | 1 to 3.5 µg/mL (≈ 2.79 to 9.77 µM) | – | –
CCc1c(-c2ccc(N3CCC(N(C)C)C3)cc2F)[nH]c(=O)c(C(=O)O)c1O (stereo not drawn) [Cpd 291, 6-{4-[3-(dimethylamino)pyrrolidin-1-yl]-2-fluorophenyl}-5-ethyl-4-hydroxy-2-oxo-1,2-dihydropyridine-3-carboxylic acid] | 12.5 to 150 µg/mL (≈ 32.1 to 385 µM) | 12.5 to 150 µg/mL (≈ 32.1 to 385 µM) | 1 to 3.5 µg/mL (≈ 2.57 to 8.99 µM) | – | 3.5 to 12.5 µg/mL (≈ 8.99 to 32.1 µM) | – | –
CCc1c(-c2ccc(N3CC4CC3CN4C(=O)OC(C)(C)C)cc2)[nH]c(=O)c(C(=O)O)c1O (stereo not drawn) [Cpd 294, 6-{4-[5-(tert-butoxycarbonyl)-2,5-diazabicyclo[2.2.1]hept-2-yl]phenyl}-5-ethyl-4-hydroxy-2-oxo-1,2-dihydropyridine-3-carboxylic acid] | 12.5 to 150 µg/mL (≈ 27.4 to 329 µM) | 1 to 3.5 µg/mL (≈ 2.2 to 7.68 µM) | – | – | 12.5 to 150 µg/mL (≈ 27.4 to 329 µM) | – | < 1 µg/mL
CCc1c(-c2ccc(N3CC4CC3CN4)cc2)[nH]c(=O)c(C(=O)O)c1O.O=C(O)C(F)(F)F (stereo not drawn) [Cpd 295, 6-[4-(2,5-diazabicyclo[2.2.1]hept-2-yl)phenyl]-5-ethyl-4-hydroxy-2-oxo-1,2-dihydropyridine-3-carboxylic acid trifluoroacetate] | 12.5 to 150 µg/mL | 12.5 to 150 µg/mL | – | – | 12.5 to 150 µg/mL | – | 1 to 3.5 µg/mL
CCc1c(-c2ccc(N3CC4=CCCC[C@@H]4C3)cc2)[nH]c(=O)c(C(=O)O)c1O.Cl [Cpd 297, 5-ethyl-6-{4-[(3aS)-1,3,3a,4,5,6-hexahydro-2H-isoindol-2-yl]phenyl}-4-hydroxy-2-oxo-1,2-dihydropyridine-3-carboxylic acid hydrochloride] | 12.5 to 150 µg/mL | 3.5 to 12.5 µg/mL | < 1 µg/mL | – | 12.5 to 150 µg/mL | – | –
CCc1cc(C(=O)O)c(=O)[nH]c1-c1cc(CN2CCCC2)n(C)c1 [Cpd 348, 5-ethyl-6-(1-methyl-5-(pyrrolidin-1-ylmethyl)-1H-pyrrol-3-yl)-2-oxo-1,2-dihydropyridine-3-carboxylic acid] | 12.5 to 150 µg/mL (≈ 37.9 to 455 µM) | 12.5 to 150 µg/mL (≈ 37.9 to 455 µM) | 3.5 to 12.5 µg/mL (≈ 10.6 to 37.9 µM) | – | 12.5 to 150 µg/mL (≈ 37.9 to 455 µM) | – | –
CCc1cc(C(=O)O)c(=O)[nH]c1-c1cc(CN2CCCCC2)n(C)c1 [Cpd 349, 5-ethyl-6-(1-methyl-5-(piperidin-1-ylmethyl)-1H-pyrrol-3-yl)-2-oxo-1,2-dihydropyridine-3-carboxylic acid] | 12.5 to 150 µg/mL (≈ 36.4 to 437 µM) | 12.5 to 150 µg/mL (≈ 36.4 to 437 µM) | 12.5 to 150 µg/mL (≈ 36.4 to 437 µM) | – | 12.5 to 150 µg/mL (≈ 36.4 to 437 µM) | – | –
CCc1cc(C(=O)O)c(=O)[nH]c1-c1ccc(CN2CCCC2)n1C [Cpd 350, 5-ethyl-6-(1-methyl-5-(pyrrolidin-1-ylmethyl)-1H-pyrrol-2-yl)-2-oxo-1,2-dihydropyridine-3-carboxylic acid] | 12.5 to 150 µg/mL (≈ 37.9 to 455 µM) | 12.5 to 150 µg/mL (≈ 37.9 to 455 µM) | 12.5 to 150 µg/mL (≈ 37.9 to 455 µM) | – | 12.5 to 150 µg/mL (≈ 37.9 to 455 µM) | – | –
CCc1cc(C(=O)O)c(=O)[nH]c1-c1ccc(CN(C)C)n1C [Cpd 351, 6-(5-((dimethylamino)methyl)-1-methyl-1H-pyrrol-2-yl)-5-ethyl-2-oxo-1,2-dihydropyridine-3-carboxylic acid] | 12.5 to 150 µg/mL (≈ 41.2 to 494 µM) | 12.5 to 150 µg/mL (≈ 41.2 to 494 µM) | 12.5 to 150 µg/mL (≈ 41.2 to 494 µM) | – | 12.5 to 150 µg/mL (≈ 41.2 to 494 µM) | – | –
CCc1cc(C(=O)O)c(=O)[nH]c1-c1ccc(CN2CCCCC2)n1C [Cpd 352, 5-ethyl-6-(1-methyl-5-(piperidin-1-ylmethyl)-1H-pyrrol-2-yl)-2-oxo-1,2-dihydropyridine-3-carboxylic acid] | 12.5 to 150 µg/mL (≈ 36.4 to 437 µM) | 12.5 to 150 µg/mL (≈ 36.4 to 437 µM) | 12.5 to 150 µg/mL (≈ 36.4 to 437 µM) | – | 12.5 to 150 µg/mL (≈ 36.4 to 437 µM) | – | –
CCc1cc(C(=O)O)c(=O)[nH]c1-c1ccc(CN2CCC(N(C)C)C2)n1C (stereo not drawn) [Cpd 353, 6-(5-((3-(dimethylamino)pyrrolidin-1-yl)methyl)-1-methyl-1H-pyrrol-2-yl)-5-ethyl-2-oxo-1,2-dihydropyridine-3-carboxylic acid] | 12.5 to 150 µg/mL (≈ 33.6 to 403 µM) | 12.5 to 150 µg/mL (≈ 33.6 to 403 µM) | 12.5 to 150 µg/mL (≈ 33.6 to 403 µM) | – | 12.5 to 150 µg/mL (≈ 33.6 to 403 µM) | – | –
